We go through six compounds from PubChem BioAssay (NCI).

Molecules are shown by their SMILES.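 Each compound was tested at five concentrations against cells in 96-well plates for 48 hours. TGI marks complete inhibition of growth.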

Among the test systems are RPMI-8226 leukemia; DLD-1 colon; DMS 114 small cell lung; M19-MEL melanoma; LXFL 529 NSCLC; 786-0 renal; HT29 colon; SNB-78 CNS; HCT-15 colon; KM20L2 colon; LOX IMVI melanoma; RXF-631 renal; XF 498 CNS; HOP-18 NSCLC; DMS 273 small cell lung.
Experiment in all cases: NCI-60 cell line screen, 48 h

In the case of `COc1cc(C(C)c2cc3c(cc2OCCCCOc2cc4c(cc2C(C)c2cc(OC)c(OC)c(OC)c2)OCO4)OCO3)cc(OC)c1OC` (stereo unspecified), the TGI is over 100 µM with RPMI-8226 leukemia; over 100 µM in the assay on DLD-1 colon; 45.1 µM in the assay with DMS 114 small cell lung; over 100 µM with M19-MEL melanoma; over 100 µM with LXFL 529 NSCLC; over 100 µM in the assay on 786-0 renal. Also, the TGI is over 100 µM with HT29 colon; 64 µM with SNB-78 CNS; over 100 µM in the assay on HCT-15 colon; over 100 µM with KM20L2 colon; over 100 µM with LOX IMVI melanoma; over 100 µM in the assay on RXF-631 renal. Further, the TGI with XF 498 CNS amounted to 89.2 µM.
In the case of `COc1ccc(C2ON(c3ccccn3)CC=C2C)cc1` (stereo unspecified), the TGI with HOP-18 NSCLC, with RPMI-8226 leukemia, in the assay on DLD-1 colon, with DMS 114 small cell lung, in the assay with M19-MEL melanoma and with LXFL 529 NSCLC was over 100 µM throughout. Moreover, the TGI with 786-0 renal, in the assay with HT29 colon, in the assay on SNB-78 CNS, in the assay with HCT-15 colon, with KM20L2 colon and in the assay with LOX IMVI melanoma was over 100 µM in each case. The TGI with RXF-631 renal, in the assay with DMS 273 small cell lung and in the assay with XF 498 CNS was over 100 µM each time.
As to `CC12CC[C@H](O)C(C)(C)[C@H]1CC[C@](C)(O)C2COc1ccc2ccc(=O)oc2c1` (stereo partly specified), the TGI in the assay on HOP-18 NSCLC, in the assay with RPMI-8226 leukemia, in the assay with DLD-1 colon, in the assay with DMS 114 small cell lung, with M19-MEL melanoma and in the assay with LXFL 529 NSCLC was over 100 µM each time. The TGI with 786-0 renal, with HT29 colon, with SNB-78 CNS, in the assay on HCT-15 colon, in the assay on KM20L2 colon and in the assay with LOX IMVI melanoma was over 100 µM each time. In addition, the TGI in the assay on DMS 273 small cell lung and in the assay with XF 498 CNS was over 100 µM throughout.
For the compound `NC(=S)N1N=C2c3ccccc3CC[C@H]2[C@@H]1c1cccs1`, the TGI in the assay on HOP-18 NSCLC is over 100 µM; with RPMI-8226 leukemia, over 100 µM; with DLD-1 colon, over 100 µM; in the assay with DMS 114 small cell lung, 61.1 µM; in the assay on M19-MEL melanoma, over 100 µM; with LXFL 529 NSCLC it was over 100 µM. The TGI was over 100 µM with 786-0 renal; 73.3 µM in the assay with HT29 colon; over 100 µM with SNB-78 CNS; over 100 µM with HCT-15 colon; 62.9 µM in the assay on KM20L2 colon; over 100 µM with LOX IMVI melanoma. Also, the TGI in the assay on DMS 273 small cell lung was 36.6 µM; in the assay with XF 498 CNS, over 100 µM.
In the case of `COC(=O)N/N=C/c1oc(-c2ccccc2)c(-c2ccccc2)c1[N+](=O)[O-]`, the TGI in the assay on RPMI-8226 leukemia, in the assay on DLD-1 colon, in the assay on DMS 114 small cell lung, in the assay with M19-MEL melanoma, with LXFL 529 NSCLC and in the assay on 786-0 renal was over 100 µM throughout. The TGI in the assay on HT29 colon, in the assay on SNB-78 CNS, with HCT-15 colon, with KM20L2 colon, in the assay with LOX IMVI melanoma and with RXF-631 renal was over 100 µM each time. Further, the TGI in the assay on DMS 273 small cell lung and in the assay with XF 498 CNS was over 100 µM throughout.
Regarding `CC1(C)C2CCC3(OCCO3)C1C1OC12` (stereo unspecified), the TGI with HOP-18 NSCLC, in the assay with RPMI-8226 leukemia, with 786-0 renal, with HT29 colon, in the assay on SNB-78 CNS and with HCT-15 colon was over 100 µM in each case. Also, the TGI in the assay with KM20L2 colon, in the assay on LOX IMVI melanoma, in the assay with RXF-631 renal, with DMS 273 small cell lung and in the assay on XF 498 CNS was over 100 µM in each case.
